Source: patent US6468992B1, “Phosphonic acid diester derivatives” (Otsuka Pharmaceutical Factory, Inc., priority 1998, dated 2002)

System: male Wister rats
Assay: blood glucose-lowering activity in dexamethasone-treated rats
Format: in vivo
Settings: male Wister rats given dexamethasone 0.5 mg/kg i.p. once a day for 4 days; test compound 100 mg/kg orally daily; serum glucose on day 4, 4 hours after dexamethasone, fasted 24 hours; versus control and normal groups
Procedure: The compounds of the present invention were tested for blood glucose-lowering activities in rats in the following manner.
That is, Dexamethasone (Decadron S injectable solution:made by Banyu Pharmaceutical Co.,Ltd.) was administered intraperitoneally to a group (test group) of 5 male Wister rats (6 weeks old) at a daily dose of 0.5 mg/kg, once a day for 4 days. Immediately after the administration of dexamethasone, a test compound (100 mg/kg) dissolved in 5% gum arabic solution was administered orally to rats daily. On day 4, the rats were decapitated 4 hours after the administration of dexamethasone. Blood was collected and centrifuged (3000 rpm, […], 15 minutes), then the glucose level in the obtained serum was measured by the use of Glucose cII Test Wako (made by Wako Pure Chemical Industries, Ltd.). The rats were maintained on a diet ad libitum and then fasted 24 hours before the collection of blood.
Animals which were given 5% gum arabic solution instead of a test compound were served as a control group and those which were maintained merely on a diet ad libitum were served as a normal group. The serum glucose levels of them were measured according to the same manner as above. The decrease rate of blood glucose level was determined by the value (mean value) of each group from the following equation. [formula]

For `CCOP(=O)(OCC)C(=O)Nc1cc(Cl)ccc1C(=O)NC` [Example 51, Diethyl N-[5-chloro-2-(N-methylcarbamoyl)phenyl]carbamoyl phosphonate], which “Decrease rate (%) in blood glucose level” value is on record?
The value was 17%.

For `CCOP(=O)(CCCC(=O)Nc1cc(Cl)cc(Cl)c1C(=O)NC)OCC` [Example 7, diethyl 3-[N-[3,5-dichloro-2-(N-methylcarbamoyl)phenyl]carbamoyl]propylphosphonate], which “Decrease rate (%) in blood glucose level” value is on record?
The value was 30%.

For `CCOP(=O)(CCCC(=O)Nc1c(Cl)cc(Cl)cc1C(=O)NC)OCC` [Example 8, diethyl 3-[N-[4,6-dichloro-2-(N-methylcarbamoyl)phenyl]-carbamoyl]propylphosphonate], which “Decrease rate (%) in blood glucose level” value is on record?
The value was 39%.

Which “Decrease rate (%) in blood glucose level” value does the source give for `CCOP(=O)(CCCC(=O)Nc1cccc(Cl)c1C(=O)Nc1ccccc1)OCC` [Example 31, diethyl 3-[N-[3-chloro-2-(N-phenylcarbamoyl)phenyl]carbamoyl]propylphosphonate] here?
The value was 59%.
